The series concerns CCRIS mutagenicity, Ames/micronucleus/aberration tests. Nature of the series: CCRIS mutagenicity studies.
[1] abbreviates: Test System: AMES SALMONELLA TYPHIMURIUM, Strain/Indicator: TA98, Metabolic Activation: NONE, Method: STANDARD PLATE.
Setting [2] is: Test System: AMES SALMONELLA TYPHIMURIUM, Strain/Indicator: TA100, Metabolic Activation: NONE, Method: STANDARD PLATE.
Setting [3] is: Test System: AMES SALMONELLA TYPHIMURIUM, Strain/Indicator: TA1535, Metabolic Activation: NONE, Method: STANDARD PLATE.
Where [4] appears, read: Test System: AMES SALMONELLA TYPHIMURIUM, Strain/Indicator: TA1537, Metabolic Activation: NONE, Method: STANDARD PLATE.
The mark [5] stands for this setting: Test System: AMES SALMONELLA TYPHIMURIUM, Strain/Indicator: TA1538, Metabolic Activation: NONE, Method: STANDARD PLATE.
[6] abbreviates: Test System: AMES SALMONELLA TYPHIMURIUM, Strain/Indicator: TA98, Metabolic Activation: RAT, LIVER, S-9, AROCLOR 1254, Method: STANDARD PLATE.
Setting [7] is: Test System: AMES SALMONELLA TYPHIMURIUM, Strain/Indicator: TA98, Metabolic Activation: HAMSTER, LIVER, S-9, AROCLOR 1254 (10%), Method: PREINCUBATION
Setting [8] is: Test System: AMES SALMONELLA TYPHIMURIUM, Strain/Indicator: TA98, Metabolic Activation: NONE, Method: PREINCUBATION
The mark [9] stands for this setting: Test System: AMES SALMONELLA TYPHIMURIUM, Strain/Indicator: TA98, Metabolic Activation: RAT, LIVER, S-9, AROCLOR 1254 (10%), Method: PREINCUBATION
[10] abbreviates: Test System: AMES SALMONELLA TYPHIMURIUM, Strain/Indicator: TA100, Metabolic Activation: HAMSTER, LIVER, S-9, AROCLOR 1254 (10%), Method: PREINCUBATION
[11] abbreviates: Test System: AMES SALMONELLA TYPHIMURIUM, Strain/Indicator: TA100, Metabolic Activation: NONE, Method: PREINCUBATION
The mark [12] stands for this setting: Test System: AMES SALMONELLA TYPHIMURIUM, Strain/Indicator: TA100, Metabolic Activation: RAT, LIVER, S-9, AROCLOR 1254 (10%), Method: PREINCUBATION
[13] abbreviates: Test System: AMES SALMONELLA TYPHIMURIUM, Strain/Indicator: TA1535, Metabolic Activation: HAMSTER, LIVER, S-9, AROCLOR 1254 (10%), Method: PREINCUBATION
[14] abbreviates: Test System: AMES SALMONELLA TYPHIMURIUM, Strain/Indicator: TA1535, Metabolic Activation: NONE, Method: PREINCUBATION
[15] abbreviates: Test System: AMES SALMONELLA TYPHIMURIUM, Strain/Indicator: TA1535, Metabolic Activation: RAT, LIVER, S-9, AROCLOR 1254 (10%), Method: PREINCUBATION

These results are taken from PubChem BioAssay AID1259407 (Chemical Carcinogenesis Research Information System (CCRIS), 2018).

Calls of active or inactive are those of the source. How the calls were made is not given here.

For `CC1CCC(C(C)C)C(OC(=O)c2ccccc2N)C1` (stereo not given), the mutagenic call (Test System: AMES SALMONELLA TYPHIMURIUM, Strain/Indicator: TA98, Metabolic Activation: HAMSTER, LIVER, S-9, AROCLOR 1254 (10%), Method: STANDARD PLATE) is “inactive; negative”; the mutagenic call under setting [1] was “inactive; negative”; the mutagenic call (Test System: AMES SALMONELLA TYPHIMURIUM, Strain/Indicator: TA98, Metabolic Activation: RAT, LIVER, S-9, AROCLOR 1254 (10%), Method: STANDARD PLATE) is “inactive; negative”; the mutagenic call (Test System: AMES SALMONELLA TYPHIMURIUM, Strain/Indicator: TA100, Metabolic Activation: HAMSTER, LIVER, S-9, AROCLOR 1254 (10%), Method: STANDARD PLATE) was “inactive; negative”; the mutagenic call under setting [2] is “inactive; negative”; the mutagenic call (Test System: AMES SALMONELLA TYPHIMURIUM, Strain/Indicator: TA100, Metabolic Activation: RAT, LIVER, S-9, AROCLOR 1254 (10%), Method: STANDARD PLATE) was “inactive; negative”. Moreover, the mutagenic call by setting is: (Test System: AMES SALMONELLA TYPHIMURIUM, Strain/Indicator: TA1535, Metabolic Activation: HAMSTER, LIVER, S-9, AROCLOR 1254 (10%), Method: STANDARD PLATE) “inactive; negative”; under setting [3], “inactive; negative”; (Test System: AMES SALMONELLA TYPHIMURIUM, Strain/Indicator: TA1535, Metabolic Activation: RAT, LIVER, S-9, AROCLOR 1254 (10%), Method: STANDARD PLATE) “inactive; negative”; (Test System: AMES SALMONELLA TYPHIMURIUM, Strain/Indicator: TA1537, Metabolic Activation: HAMSTER, LIVER, S-9, AROCLOR 1254 (10%), Method: STANDARD PLATE) “inactive; negative”; under setting [4], “inactive; negative”; (Test System: AMES SALMONELLA TYPHIMURIUM, Strain/Indicator: TA1537, Metabolic Activation: RAT, LIVER, S-9, AROCLOR 1254 (10%), Method: STANDARD PLATE) “inactive; negative”. The mutagenic call reads like this: (Test System: AMES SALMONELLA TYPHIMURIUM, Strain/Indicator: TA1538, Metabolic Activation: HAMSTER, LIVER, S-9, AROCLOR 1254 (10%), Method: STANDARD PLATE) “inactive; negative”; under setting [5], “inactive; negative”; (Test System: AMES SALMONELLA TYPHIMURIUM, Strain/Indicator: TA1538, Metabolic Activation: RAT, LIVER, S-9, AROCLOR 1254 (10%), Method: STANDARD PLATE) “inactive; negative”; (Test System: MOUSE LYMPHOMA, Strain/Indicator: L5178Y (TK+/TK-), Metabolic Activation: NONE, Method: SUSPENSION/PLATE) “inactive; negative. reevaluation of results: negative”; (Test System: MOUSE LYMPHOMA, Strain/Indicator: L5178Y (TK+/TK-), Metabolic Activation: RAT, LIVER, S-9, AROCLOR 1254, Method: SUSPENSION/PLATE) “inactive; negative. reevaluation of results: equivocal”.

As for `N=c1ccc2nc3ccc(N)cc3sc-2c1`, the mutagenic call reads like this: under setting [1], “active; positive”; under setting [6], “active; positive”; under setting [3], “inactive; negative”; (Test System: AMES SALMONELLA TYPHIMURIUM, Strain/Indicator: TA1535, Metabolic Activation: RAT, LIVER, S-9, AROCLOR 1254, Method: STANDARD PLATE) “inactive; negative”; under setting [4], “inactive; negative”; (Test System: AMES SALMONELLA TYPHIMURIUM, Strain/Indicator: TA1537, Metabolic Activation: RAT, LIVER, S-9, AROCLOR 1254, Method: STANDARD PLATE) “inactive; negative”. The mutagenic call under setting [5] is “active; positive” and the mutagenic call (Test System: AMES SALMONELLA TYPHIMURIUM, Strain/Indicator: TA1538, Metabolic Activation: RAT, LIVER, S-9, AROCLOR 1254, Method: STANDARD PLATE) is “active; positive”.

In the case of `O=CC1=CCCC2CC12C=O` (stereo not given), the mutagenic call under setting [1] is “active; positive” and the mutagenic call under setting [2] is “active; positive”.

For the compound `Cc1cc(C(C#N)c2ccc(Cl)cc2)c(Cl)cc1NC(=O)c1cc(I)cc(I)c1O` (stereo not given), the mutagenic call (End Point: In vivo chromosomal aberrations, Test System: Bone marrow cells, Species: Mouse, Strain/Sex: Swiss/Male, Route: Intraperitoneal) is “active; positive (structural changes)”.

In the case of `NC(=O)c1ccccc1C(N)=O`, the mutagenic call under setting [7] is “inactive; negative”; the mutagenic call under setting [8] was “inactive; negative”; the mutagenic call under setting [9] was “inactive; negative”; the mutagenic call under setting [10] was “inactive; negative”; the mutagenic call under setting [11] was “inactive; negative”; the mutagenic call under setting [12] is “inactive; negative”. For the same compound, the mutagenic call under setting [13] was “inactive; negative”; the mutagenic call under setting [14] was “inactive; negative”; the mutagenic call under setting [15] was “inactive; negative”; the mutagenic call (Test System: AMES SALMONELLA TYPHIMURIUM, Strain/Indicator: TA1537, Metabolic Activation: HAMSTER, LIVER, S-9, AROCLOR 1254 (10%), Method: PREINCUBATION) was “inactive; negative”; the mutagenic call (Test System: AMES SALMONELLA TYPHIMURIUM, Strain/Indicator: TA1537, Metabolic Activation: NONE, Method: PREINCUBATION) is “inactive; negative”; the mutagenic call (Test System: AMES SALMONELLA TYPHIMURIUM, Strain/Indicator: TA1537, Metabolic Activation: RAT, LIVER, S-9, AROCLOR 1254 (10%), Method: PREINCUBATION) was “inactive; negative”.

Regarding `CN(C)c1ccc(/C=C/C(=O)c2ccccc2)cc1`, the mutagenic call was “inactive; negative” under setting [1]; “inactive; negative” under setting [6]; “inactive; negative” under setting [2]; “inactive; negative” (Test System: AMES SALMONELLA TYPHIMURIUM, Strain/Indicator: TA100, Metabolic Activation: RAT, LIVER, S-9, AROCLOR 1254, Method: STANDARD PLATE).

On to `CC(COc1ccccc1)N(CCCl)Cc1ccccc1` (stereo not given), for which the mutagenic call (Test System: AMES SALMONELLA TYPHIMURIUM, Strain/Indicator: TA97, Metabolic Activation: HAMSTER, LIVER, S-9, AROCLOR 1254 (10%), Method: PREINCUBATION) was “active; positive”; the mutagenic call (Test System: AMES SALMONELLA TYPHIMURIUM, Strain/Indicator: TA97, Metabolic Activation: NONE, Method: PREINCUBATION) is “active; positive”; the mutagenic call (Test System: AMES SALMONELLA TYPHIMURIUM, Strain/Indicator: TA97, Metabolic Activation: RAT, LIVER, S-9, AROCLOR 1254 (10%), Method: PREINCUBATION) was “active; positive”; the mutagenic call under setting [7] is “active; positive”; the mutagenic call under setting [8] is “active; positive”; the mutagenic call under setting [9] was “active; positive”. The mutagenic call is “active; positive” under setting [10]; “active; positive” under setting [11]; “active; positive” under setting [12]; “active; positive” under setting [13]; “inactive; negative” under setting [14]; “active; positive” under setting [15].

Regarding `Oc1cc2ccccc2c2cc3c(ccc4ccccc43)nc12`, the mutagenic call is “inactive; negative” (Test System: AMES SALMONELLA TYPHIMURIUM, Strain/Indicator: TA100, Metabolic Activation: GUINEA PIG, LIVER, S-9, 3-METHYLCHOLANTHRENE, Method: STANDARD PLATE) and “inactive; negative” (Test System: CHINESE HAMSTER V-79, Strain/Indicator: V-79/6-THIOGUANINE, Metabolic Activation: GUINEA PIG, LIVER, S-9, 3-METHYLCHOLANTHRENE).

As to `CC(=O)OCN(CCCCCl)N=O`, the mutagenic call by setting is: (Test System: AMES SALMONELLA TYPHIMURIUM, Strain/Indicator: TA92, Metabolic Activation: NONE, Method: STANDARD PLATE) “active; positive”; under setting [3], “active; positive”.
